Measurements from PubChem BioAssay AID1963428 (Molecular Pharmacology Branch, DTP, NCI, 2024).
Values belong to the molecule of their own block, whether it stands above or below them.

System: 171881-019-R-J1-PDC complex spheroid growth, % test/control
Experiment: Anticancer human tumor 171881-019-R-J1-PDC patient-derived invasive breast carcinoma cell line growth inhibition [Asc]
Settings: for IC50: curve of first compound; for viability, T/C: stronger effect = lower value
Summary of the method: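 Stromal components (HUVEC and hMSC) are co-assembled with the cancer cells into multicellular spheroids. Drugs are then added singly or paired, at concentrations falling by half-log increments from a clinically achievable maximum, capped at 10 microM without known Cmax.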

[1] = second compound 0.01 µM, first compound 0.00316 µM
[2] = second compound 0.01 µM, first compound 0.01 µM
[3] = second compound 0.01 µM, first compound 0.0316 µM
[4] = second compound 0.01 µM, first compound 0.1 µM
[5] = second compound 0.01 µM, first compound 0.316 µM
[6] = second compound 0.01 µM, first compound 1 µM
[7] = second compound 0.0316 µM, first compound 0.00316 µM
[8] = second compound 0.0316 µM, first compound 0.01 µM
[9] = second compound 0.0316 µM, first compound 0.0316 µM
[10] = second compound 0.0316 µM, first compound 0.1 µM
[11] = second compound 0.0316 µM, first compound 0.316 µM
[12] = second compound 0.0316 µM, first compound 1 µM
[13] = second compound 0.1 µM, first compound 0.00316 µM
[14] = second compound 0.1 µM, first compound 0.01 µM
[15] = second compound 0.1 µM, first compound 0.0316 µM
[16] = second compound 0.1 µM, first compound 0.1 µM
[17] = second compound 0.1 µM, first compound 0.316 µM
[18] = second compound 0.1 µM, first compound 1 µM
[19] = second compound 0.316 µM, first compound 0.00316 µM
[20] = second compound 0.316 µM, first compound 0.01 µM
[21] = second compound 0.316 µM, first compound 0.0316 µM
[22] = second compound 0.316 µM, first compound 0.1 µM
[23] = second compound 0.316 µM, first compound 0.316 µM
[24] = second compound 0.316 µM, first compound 1 µM
[25] = second compound 1 µM, first compound 0.00316 µM
[26] = second compound 1 µM, first compound 0.01 µM
[27] = second compound 1 µM, first compound 0.0316 µM
[28] = second compound 1 µM, first compound 0.1 µM
[29] = second compound 1 µM, first compound 0.316 µM
[30] = second compound 1 µM, first compound 1 µM
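Wherever viability, T/C is given: spheroids exposed to compounds for 7 days.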

IC50 (second compound 0.01 µM): > 1000 nM
IC50 (second compound 0.0316 µM): > 1000 nM
IC50 (second compound 0.1 µM): > 1000 nM
IC50 (second compound 0.316 µM): > 1000 nM
IC50 (second compound 1 µM): > 1000 nM
SMILES: CCN1CCN(Cc2ccc(Nc3ncc(F)c(-c4cc(F)c5nc(C)n(C(C)C)c5c4)n3)nc2)CC1 + CNC(C)C(=O)NC1CN(S(=O)(=O)c2cccc(S(=O)(=O)N3CCC4CCC(C(=O)NC(c5ccccc5)c5ccccc5)N4C(=O)C(NC(=O)C(C)NC)C3)c2)CCC2CCC(C(=O)NC(c3ccccc3)c3ccccc3)N2C1=O
viability, T/C [1]: 94.1%
viability, T/C [2]: 102%
viability, T/C [3]: 102%
viability, T/C [4]: 113%
viability, T/C [5]: 131%
viability, T/C [6]: 147%
viability, T/C [7]: 89.7%
viability, T/C [8]: 97.9%
viability, T/C [9]: 112%
viability, T/C [10]: 124%
viability, T/C [11]: 149%
viability, T/C [12]: 143%
viability, T/C [13]: 112%
viability, T/C [14]: 107%
viability, T/C [15]: 117%
viability, T/C [16]: 128%
viability, T/C [17]: 143%
viability, T/C [18]: 174%
viability, T/C [19]: 101%
viability, T/C [20]: 110%
viability, T/C [21]: 121%
viability, T/C [22]: 130%
viability, T/C [23]: 142%
viability, T/C [24]: 143%
viability, T/C [25]: 89.7%
viability, T/C [26]: 110%
viability, T/C [27]: 117%
viability, T/C [28]: 139%
viability, T/C [29]: 131%
viability, T/C [30]: 146%

IC50 (second compound 0.01 µM): 32.4 nM
IC50 (second compound 0.0316 µM): 30.8 nM
IC50 (second compound 0.1 µM): 29.6 nM
IC50 (second compound 0.316 µM): 28.1 nM
IC50 (second compound 1 µM): 28.7 nM
SMILES: COc1c(OCCCN2CCOCC2)ccc2c3n(c(=NC(=O)c4cnc(N)nc4)nc12)CCN3 + CNC(C)C(=O)NC1CN(S(=O)(=O)c2cccc(S(=O)(=O)N3CCC4CCC(C(=O)NC(c5ccccc5)c5ccccc5)N4C(=O)C(NC(=O)C(C)NC)C3)c2)CCC2CCC(C(=O)NC(c3ccccc3)c3ccccc3)N2C1=O
viability, T/C [1]: 196%
viability, T/C [2]: 133%
viability, T/C [3]: 49.7%
viability, T/C [4]: 15.9%
viability, T/C [5]: 4.61%
viability, T/C [6]: 2.61%
viability, T/C [7]: 215%
viability, T/C [8]: 137%
viability, T/C [9]: 46.5%
viability, T/C [10]: 15.6%
viability, T/C [11]: 4.08%
viability, T/C [12]: 1.97%
viability, T/C [13]: 203%
viability, T/C [14]: 135%
viability, T/C [15]: 43.8%
viability, T/C [16]: 13.1%
viability, T/C [17]: 3.67%
viability, T/C [18]: 2.63%
viability, T/C [19]: 182%
viability, T/C [20]: 122%
viability, T/C [21]: 41%
viability, T/C [22]: 11.9%
viability, T/C [23]: 3.14%
viability, T/C [24]: 1.94%
viability, T/C [25]: 210%
viability, T/C [26]: 125%
viability, T/C [27]: 43.8%
viability, T/C [28]: 10.4%
viability, T/C [29]: 3.22%
viability, T/C [30]: 2.13%

IC50 (second compound 0.01 µM): 63 nM
IC50 (second compound 0.0316 µM): 66.3 nM
IC50 (second compound 0.1 µM): 61.9 nM
IC50 (second compound 0.316 µM): 58.6 nM
IC50 (second compound 1 µM): 61.6 nM
SMILES: NC(=O)C(=Cn1cnc(-c2cc(C(F)(F)F)cc(C(F)(F)F)c2)n1)c1cncnc1 + CNC(C)C(=O)NC1CN(S(=O)(=O)c2cccc(S(=O)(=O)N3CCC4CCC(C(=O)NC(c5ccccc5)c5ccccc5)N4C(=O)C(NC(=O)C(C)NC)C3)c2)CCC2CCC(C(=O)NC(c3ccccc3)c3ccccc3)N2C1=O
viability, T/C (second compound 0.01 µM, first compound 0.000949 µM): 118%
viability, T/C (second compound 0.01 µM, first compound 0.003 µM): 101%
viability, T/C (second compound 0.01 µM, first compound 0.00949 µM): 139%
viability, T/C (second compound 0.01 µM, first compound 0.03 µM): 109%
viability, T/C (second compound 0.01 µM, first compound 0.0949 µM): 17.5%
viability, T/C (second compound 0.01 µM, first compound 0.3 µM): 5.02%
viability, T/C (second compound 0.0316 µM, first compound 0.000949 µM): 109%
viability, T/C (second compound 0.0316 µM, first compound 0.003 µM): 111%
viability, T/C (second compound 0.0316 µM, first compound 0.00949 µM): 149%
viability, T/C (second compound 0.0316 µM, first compound 0.03 µM): 104%
viability, T/C (second compound 0.0316 µM, first compound 0.0949 µM): 17.8%
viability, T/C (second compound 0.0316 µM, first compound 0.3 µM): 5.09%
viability, T/C (second compound 0.1 µM, first compound 0.000949 µM): 97.9%
viability, T/C (second compound 0.1 µM, first compound 0.003 µM): 109%
viability, T/C (second compound 0.1 µM, first compound 0.00949 µM): 145%
viability, T/C (second compound 0.1 µM, first compound 0.03 µM): 111%
viability, T/C (second compound 0.1 µM, first compound 0.0949 µM): 14.1%
viability, T/C (second compound 0.1 µM, first compound 0.3 µM): 4.5%
viability, T/C (second compound 0.316 µM, first compound 0.000949 µM): 118%
viability, T/C (second compound 0.316 µM, first compound 0.003 µM): 108%
viability, T/C (second compound 0.316 µM, first compound 0.00949 µM): 149%
viability, T/C (second compound 0.316 µM, first compound 0.03 µM): 98.7%
viability, T/C (second compound 0.316 µM, first compound 0.0949 µM): 15.8%
viability, T/C (second compound 0.316 µM, first compound 0.3 µM): 4.13%
viability, T/C (second compound 1 µM, first compound 0.000949 µM): 110%
viability, T/C (second compound 1 µM, first compound 0.003 µM): 108%
viability, T/C (second compound 1 µM, first compound 0.00949 µM): 166%
viability, T/C (second compound 1 µM, first compound 0.03 µM): 108%
viability, T/C (second compound 1 µM, first compound 0.0949 µM): 15.6%
viability, T/C (second compound 1 µM, first compound 0.3 µM): 3.79%

IC50 (second compound 0.01 µM): > 100 nM
IC50 (second compound 0.0316 µM): > 100 nM
IC50 (second compound 0.1 µM): > 100 nM
IC50 (second compound 0.316 µM): > 100 nM
IC50 (second compound 1 µM): > 100 nM
SMILES: NC1CCC(NC2CC2c2ccccc2)CC1 (stereo not given) + CNC(C)C(=O)NC1CN(S(=O)(=O)c2cccc(S(=O)(=O)N3CCC4CCC(C(=O)NC(c5ccccc5)c5ccccc5)N4C(=O)C(NC(=O)C(C)NC)C3)c2)CCC2CCC(C(=O)NC(c3ccccc3)c3ccccc3)N2C1=O
viability, T/C (second compound 0.01 µM, first compound 0.000316 µM): 94.2%
viability, T/C (second compound 0.01 µM, first compound 0.001 µM): 86.1%
viability, T/C [1]: 82.1%
viability, T/C [2]: 87.2%
viability, T/C [3]: 83.9%
viability, T/C [4]: 81%
viability, T/C (second compound 0.0316 µM, first compound 0.000316 µM): 89.9%
viability, T/C (second compound 0.0316 µM, first compound 0.001 µM): 91.5%
viability, T/C [7]: 100%
viability, T/C [8]: 84.9%
viability, T/C [9]: 79.5%
viability, T/C [10]: 79.9%
viability, T/C (second compound 0.1 µM, first compound 0.000316 µM): 103%
viability, T/C (second compound 0.1 µM, first compound 0.001 µM): 103%
viability, T/C [13]: 85.4%
viability, T/C [14]: 79.1%
viability, T/C [15]: 91.8%
viability, T/C [16]: 91.8%
viability, T/C (second compound 0.316 µM, first compound 0.000316 µM): 90.4%
viability, T/C (second compound 0.316 µM, first compound 0.001 µM): 86.9%
viability, T/C [19]: 84.2%
viability, T/C [20]: 95.9%
viability, T/C [21]: 85.3%
viability, T/C [22]: 81.2%
viability, T/C (second compound 1 µM, first compound 0.000316 µM): 91.5%
viability, T/C (second compound 1 µM, first compound 0.001 µM): 96.6%
viability, T/C [25]: 87.9%
viability, T/C [26]: 85.2%
viability, T/C [27]: 92.8%
viability, T/C [28]: 86%
